Series [1] in a line: maximal electroshock (MES) test, ip to mice. In kind it is in vivo. The conditions noted are these: for ED50: Mus musculus. As for the experimental part:
(§1) Screening of Anticonvulsant Activity
(§2) Compounds I-XI were screened in carworth farm #1 mice (ip--in a volume of 0.01 mL/g of body weight) and sprague-Dawley rats (po--in a volume of 0.004 mL/g of body weight) for their anticonvulsant activity and neurotoxicity by the NIH epilepsy Branch [Porter et al, 1984]. The screening procedure involved the following:
(§3) 1) the maximal electroshock (MES) test, which measures seizure spread; 2) the subcutaneous pentylenetetrazol test (sc Met test) which measures seizure threshold; and 3) the rotored ataxia test which assesses neurotoxicity.
Anticonvulsant activity and neurotoxicity of N-acetyl, N'-
benzylglycinamide (VII) and N-benzyloxycarbonylglycinamide
(IX) following ip administration to mice in comparison to
phthaloylglycinamide and N-valproylglycinamide^a.
MES Maximal electroshock.
(§4) ED50 - Effective dose in 50% of the test animals.

A short description of series [2]: rotored ataxia test (neurotoxicity), ip to mice. The format is in vivo. The conditions noted are these: for TD50: mouse, in vivo, ip. As for the experimental part:
as §1, §2, §3
TD50 - Neurotoxic dose in 50% of the test animals.

For series [3] the following is noted: mice; Kohn et al 1988, 1990, 1991; Conley and Kohn, 1987; cited from earlier work.
A short description of series [4]: Screening of anticonvulsant activity. Conditions: for anticonvulsant activity in words: overall finding of the study. The format is in vivo, mice. The protocol:
as §1, §2, §3
Applicants therefore decided to derivatize glycinamide and the above dipeptides by synthesizing their N-acetyl and N'-benzyl derivatives (compounds IV-VIII). […] Therefore, this compound was further analyzed quantitatively and its ED50 data and protective indices in comparison to phthaloyl glycinamide and valproyl glycinamide--TV 1901 [17] are presented in Table 2. As a consequence of their anticonvulsant activity, the pharmacokinetics of compounds VII and IX were investigated following iv administration (400 mg) to six dogs, and the mean plasma levels of compounds VII and IX are presented in FIGS. 1 and 2, respectively.

Series [5] can be described thus: Blood stability study in dog blood. In kind it is in vitro ADME. As for the experimental part:
Blood samples (4 mL) were then collected at the following times: 0, 1, 2, 3, 4, 5 and 6 hours. Plasma was immediately separated and the compounds concentrations in the plasma assayed by HPLC.

Series [6] in a line: Stability in dog plasma. The format is in vitro ADME. Conditions: 37° C. and 20° C.
A short description of series [7]: Pharmacokinetic analysis following iv administration to dogs. Conditions: for clearance: CL. In kind it is in vivo. As for the experimental part:
The experiments were carried out on six male dogs (mongrels), ranging in weight between 18 and 22 kg. In a randomized cross over design, each dog was injected intravenously (in 1.5 mL of DMSO) with a dose of 400 mg of N-acetyl,N'-benzylglycinamide (VII), 404 mg (on dose equivalent to 400 mg of compound VII) of Z-glycinamide (IX) and 406 mg of Z-glycine (VIII). Urine was collected systematically for 12 hours after dosing, by means of an indwelling catheter.
Venous blood samples (6 mL) were collected via an indwelling catheter (from the cephalic vein) at specified intervals following injection (0, 5, 10, 20, 30, 45 minutes and 1, 1.5, 2, 2.5, 3, 4, 5, 6, 7, 8, 10 and 12 hours respectively). The plasma was then immediately separated by centrifugation at 3000 g for 15 minutes and stored at -20° C. Before each assay, the plasma was allowed to reach room temperature, vortexed, centrifuged and the residual clot removed.
Urine samples were collected via a urine catheter at specified intervals following injection (0, 1, 2, 3, 4, 5, 6, 7, 8, 9, 10 and 12 hours respectively), the samples volume were measured and the urine samples were stored at -20° C. Plasma and urine levels of compounds VII, VIII and IX were then assayed by a HPLC assay described herein below.
HPLC Assay for Monitoring N-acetyl,N'-benzylglycinamide (VII) and N-benzyloxycarbonylglycinamide (IX) in Dog Plasma and Urine
Plasma samples are allowed to reach room temperature, vortexed and centrifuged. The plasma was then assayed as follows:
To 0.5 mL of plasma, 10 μg of an internal standard (N-benzyl-oxycarbonylglycinamide (IX)) and 4 mL of tert-butylmethylether were added. The mixture was vigorously vortexed for 30 seconds, centrifuged for 10 minutes at 3000 g, the organic phase was separated and evaporated to dryness (using a vortex evaporator). To the residue, 80 μl of methanol were added, the mixture was vortexed and 30 μl were injected into the HPLC (Schimadzu SCL-10A with a UV-visible detector model SPD-10A).
Urine samples are allowed to reach room temperature, vortexed and centrifuged. The urine was then assayed as follows:
To 0.25 mL of urine, 10 μg of internal standard (N-benzyl-oxycarbonylglycinamide (IX)), 100 μl of hydrochloric acid solution (1 N) and 4 mL of tert-butylmethylether were added. The mixture was vigorously vortexed for 30 seconds and centrifuged for 10 minutes at 3000 g, the organic phase was separated and transferred to another test tube containing 0.5 mL of sodium hydroxide solution (1N), the mixture was vigorously vortexed for 30 seconds, centrifuged for 10 minutes at 3000 g, the organic phase was separated and evaporated to dryness (using a vortex evaporator). To the residue, 80 μl of methanol were added, the mixture was vortexed and 30 μl were injected into the HPLC.
HPLC conditions: HPLC column; Hypersil ODS (C-18) 5μ, 4.6×150 mm; Wavelength: 258 nm; Mobile phase: 60% water, 40% methanol and 0.01% trifluoroacetic acid.
The same assay was used for monitoring N-benzyloxycarbonyl-glycinamide (IX) in dog plasma and dog urine using N-acetyl,N'-benzylglycinamide as an internal standard.
HPLC Assay for Monitoring Z-glycine (VIII) in Dog Plasma and Urine
To 0.5 mL of plasma, 10 μg of internal standard (Z-GABA), 100 μl of hydrochloric acid solution (1N) and 5 mL of tert-butylmethylether were added. The mixture was vigorously vortexed for 30 seconds, centrifuged for 10 minutes at 3000 g, the organic phase was separated and evaporated to dryness (using a vortex evaporator). To the residue, 100 μl of mobile phase were added, the mixture was vortexed and 30 μl were injected to the HPLC.
Urine samples was allowed to reach room temperature, vortexed and centrifuged. The urine was then assayed as follows:
To 0.1 mL of urine, 30 μg of internal standard (Z-GABA) and 5 mL of tert-butylmethylether were added. The mixture was vigorously vortexed for 30 seconds, centrifuged for 10 minutes at 3000 g, the organic phase was separated off. […]

Series [8] can be described thus: subcutaneous pentylenetetrazol test (sc Met), ip to mice. The format is in vivo. As for the experimental part: as §1, §2, §3, §4
A short description of series [9]: Blood-brain-barrier crossing after iv injection to rats. In kind it is in vivo. Conditions: 25 mg. The protocol:
(§5) In two separate experiments cold (unlabeled) Z-glycinamdie and Z-glucine were injected intravenously to male rats. For the experiments, the two compounds were dissolved in 0.2 mL of DMSO and were injected at a dose of 25 mg. Blood samples (8 mL each) were collected from the ascending vena cava of an individual rat at 5, 10, 20, 30, 45, 60, 90, 120, 150, 180, 240, 300, 360 and 480 minutes after administering the drug dose. Three rats were sacrificed for each of the aforementioned time measurements and the plasma or tissue obtained from each rat for each time point was averaged. Plasma was immediately separated by centrifugation at 3000 g for 15 minutes and stored at -20° C. until analyzed. Brain and liver were quickly removed at the same time intervals under light ether anesthesia, the excised tissues were immersed in liquid nitrogen for a few minutes and stored at -70° C. until analyzed. Four rats were kept in metabolic cages and the cumulative urine was collected from each rat for 480 minutes after dosing.

Series [10] in a line: Metabolism and urinary excretion in rats. In kind it is in vivo. The conditions noted are these: iv. As for the experimental part:
as §5
In rats […] of the N-benzyloxycarbonylglycinamide (IX) dose administered is metabolized to Z-glycine and excreted in the urine with the remaining 15% excreted as N-benzyloxycarbonylglycinamide (IX).

Series [11] is described as follows: Partitioning study, blood-plasma concentration ratio. In kind it is in vitro ADME. Conditions: dog blood, 25° C., 5-40 mg/L. The protocol: The blood-plasma concentration ratio of compounds VII and IX (partitioning study) was carried out at room temperature (25° C.) by spiking known amounts of the compound in six samples of fresh blood taken from a dog prior to drug administration. N-acetyl, N'-benzylglycinamide and Z-glycinamide concentrations were 5, 10, 15, 20, 30 and 40 mg/L. Each blood sample was centrifuged immediately after spiking and the separation of the plasma was carried out according to the procedure described hereinabove. Plasma levels of the two compounds VII and IX were determined by HPLC.

[12] abbreviates: 6 hours at physiological conditions (37° C.).

“Also recorded” adds a separate entry of the source. A value given as a limit tells only on which side of the number the result lay.

Turning to `CC(=O)NCC(=O)NCc1ccccc1` [compound VII, N-Acetyl,N'-benzylglycinamide], in [1], the “PI, MES (Protective index, ratio of TD50 to ED50)” value turned out to be 2.3 and the 50% effect level (ED50) was put at a dose of 88 mg/kg. For the same molecule, in [2] (at a dose as high as 300 mg/kg), the neurotoxic signs result is given as “did not show neurotoxic signs”. Besides, the TD50 in [2] was greater than 200 mg/kg. Also, the “anticonvulsant activity in MES test” value in series [3] was “active at a higher dose of 300 mg/kg”. Moreover, the anticonvulsant activity entry in series [4] (ip administration of 100 mg/kg to mice) is “showed anticonvulsant activity”. Further, the “anticonvulsant activity in words” value in [4] is recorded as “active”. Also, the “stability in dog blood” value in series [5] (20° C.) is reported as “unstable”. Besides, the “stability in dog blood” value in series [5] (setting [12]) was “unstable”. Besides, the “stability in dog plasma” value in series [6] is given as “stable”. Further, in series [7] (dog, in vivo), the CL turned out to be 6.8 ± 0.84 L/h, the mean residence time MRT amounted to 3.0 ± 0.6 h, the half-life was 2.1 ± 0.4 h and the hepatic extraction ratio worked out at 0.0125. Further, in series [7] (dog, in vivo), the “pharmacokinetics and elimination in words” value is listed as “eliminated from the body mainly by metabolism”; the t1/2 was 2.1 ± 0.5 h; the clearance is 107 mL/min. In addition, in series [7] (dog, in vivo, MRT), the mean residence time MRT amounted to 3.3 ± 0.8 h. In addition, the Vd in [7] (dog, in vivo, VSS) was found to be 21 ± 4 L. The molecule further showed a Vd in [7] (dog, in vivo, Vss) of 20 ± 4 L. In [7] (dog, in vivo, Vβ), this molecule registered a Vd of 19 ± 6 L.
On to `NC(=O)CNC(=O)OCc1ccccc1` [IX, N-benzyloxycarbonylglycinamide], for which, in series [1], the “PI, MES (Protective index, ratio of TD50 to ED50)” value amounted to 5.0 and the 50% effect level (ED50) was put at a dose of 46 mg/kg. This molecule also gave a TD50 in series [2] of 230 mg/kg. In [8], the “PI, sc Met (Protective index, ratio of TD50 to ED50)” value was found to be 2.4. The same molecule yielded an ED50 in [8] (Mus musculus) of 95 mg/kg. Besides, the “crossing of the blood-brain-barrier” value in series [9] is listed as “crossed the blood-brain-barrier more readily than does Z-glycine”. The “anticonvulsant activity in words” value in series [4] is listed as “showed anticonvulsant activity in mice; also recorded: active”. In [10] (rat, in vivo, 480 min), the “dose metabolized to Z-glycine and excreted in the urine” value was determined as 75%. Moreover, in series [10] (rats), the site of metabolism result is “occurs primarily in the liver”. Moreover, the “plasma to blood ratio” value in [11] was found to be 0.95±0.05. Moreover, the “stability in dog blood” value in [5] (setting [12]) was “stable”. In series [7] (dog, in vivo), the CL was found to be 10.7 ± 4.3 L/h, the half-life is 2.3 ± 1.3 h, the hepatic extraction ratio was found to be 0.02 and the metabolised turned out to be 80 ± 14%. For the same molecule, in series [7] (dog, in vivo), the clearance was 183 mL/min. For the same molecule, in [7] (dog, in vivo, MRT), the mean residence time MRT was 3.3 ± 1.8 h. For the same molecule, the Vd in series [7] (dog, in vivo, VSS) stood at 33 ± 10 L. In series [7] (dog, in vivo, Vss), this molecule registered a Vd of 33 ± 10 L. Also, in [7] (dogs), the “pharmacokinetics and elimination in words” value is “mainly metabolized to Z-glycine; also recorded: eliminated from the body mainly by metabolism”. The “pharmacokinetics and elimination in words” value in series [7] (dogs, listed as Z-glycinamide) was “mainly metabolized to the inactive Z-glycine”.

The record behind these values is patent US6028102A, “Anticonvulsant drugs and pharmaceutical compositions thereof” (priority 1998, dated 2000).
